{
  "source": "patent US20110293653A1",
  "about": "“ANTAGONISTS OF MIR-155 FOR THE TREATMENT OF INFLAMMATORY LIVER DISEASE” (UNIVERSITY OF MASSACHUSETTS, priority 2010, published 2011)",
  "tested_on": "miR155",
  "experiment": "miR155 expression (qPCR) in RAW cells after ethanol and/or LPS stimulation with NF-κB inhibitor",
  "type": "cell-based",
  "settings": "RAW cells pretreated 48 h with ethanol (50 mM) and MG-132 (0.25 μM) or Bay 11-7082 (0.1 uM), LPS 100 ng/mL 2 h",
  "description": "FIG. 8. […] RAW cells were exposed or not to ethanol (50 mM) and MG-132 (0.25 μM) for 48 hours and were further stimulated with LPS (100 ng/mL) for 2 hours. Expression of miR155 was assayed by qPCR and data were normalized to sno202 control. The fold increase in the expression of miR155 versus nonstimulated cells is shown. Data represent the mean value (s.e.m. as error bars) of at least three independent experiments. Statistically significant differences are shown.\nC. Cell culture and reagents. RAW 264.7 macrophages were purchased from American Type Culture Collection and maintained in Dulbecco's modified medium (Invitrogen Life Technologies, Carlsbad, Calif.) containing 10% FBS (HyClone, South Logan, Utah) at 37° C. in a 5% CO2 atmosphere. […]\nE. RNA analysis. RNA was purified using the RNeasy kit (Qiagen Sciences, Maryland, USA) or mirVana™ miRNA Isolation Kit (Ambion) if miRs were to be analyzed. […] Quantitative RT-PCR analyses for miR-125b, miR-146aa, miR155 and sno202, used as normalizing control, were performed using TaqMan miRNA assays with reagents, primers, and probes obtained from Ambion. […] Real-time quantitative polymerase chain reaction was performed using the iCycler (Bio-Rad Laboratories Inc., Hercules, Calif.), as described previously (Romics et al., supra). […] Relative expression was calculated using the comparative threshold cycle (Ct) method. […]",
  "note": "Entries after “also recorded” stand apart in the source; their conditions may differ. Where a SMILES comes first, the peptide text is derived from it. The star is where a group is joined. Cbz = O=C(OCc1ccccc1)*",
  "data": [
    {"smiles": "Cc1ccc(S(=O)(=O)/C=C/C#N)cc1", "note": "[Bay 11-7082]", "values": [
      {"measurement": "miR155 levels after ethanol and/or LPS stimulation", "value": "decrease"}
    ]},
    {"smiles": "CC(C)C[C@@H](C=O)NC(=O)[C@H](CC(C)C)NC(=O)[C@H](CC(C)C)NC(=O)OCc1ccccc1", "note": "[MG-132] (Cbz-Leu-Leu-Leu-aldehyde)", "values": [
      {"measurement": "miR155 levels after ethanol and/or LPS stimulation", "value": "decrease; also recorded: prevented miR155 increase"}
    ]}
  ]
}
